Assay results published in patent US10201610B2, “Interference peptides and use thereof” (The University of Western Australia, priority 2014, dated 2019).
Ends that are not written are not given here.

Tested on: SUM149PT cells
Assay: Hoechst staining of apoptotic nuclei in SUM149PT cells
Format: cell-based, human
Details: 8 hours, compared with non-treated or iPep624ΔHEX-treated cells
Excerpt: FIG. 3 Design of an EN1-specific interference peptide (EN1-iPep). (a) Molecular model of HOXA9 and PBX1 tertiary complex formation with the DNA (PDB: 1PUF). HOXA9 (hexapeptide “donor”) is shown in green; PBX (“partner”) in blue. The N-terminal peptide of HOXA9 (magenta) is essential to make contact with the DNA minor groove, as well as to stabilize the binding of HOXA9 with PBX1. The conserved tryptophan residue (W, arrow) is shown within the hexapeptide and it is responsible for anchoring the loop in PBX1. HD=Homeodomain. (b) A multiple alignment of the EN1-iPeps across species, with the consensus sequence of the iPep indicated below. […] Cells were treated for 8 hours and cell viability assessed by Cell Titer Glo assay (CTG). […] (e) Caspase 3 activity in SUM149PT cells measured after eight hours of iPep624 (SEQ ID NO: 5) or iPep624ΔHEX […]) treatment. […] Statistical significance was analyzed using the Student t-Test (*** p<0.001). […] Histogram represents the quantification of Hoechst positive cells per field of view at 40× magnification. […] Cell viability was assessed by Cell Titer Glo (CTG) assay and percentage of survival (%) was normalized to the control treated cells. […]
The EN1-iPeps and iPep controls were first tested in SUM149PT cells carrying high EN1 expression. […] Treated cells were first analyzed using the Cell Titer Glo assay, which monitors metabolic viability. […]

## KKKRKVTDSQQPLVWPAWVYCTRYSDRPS [iPep624]
  number of apoptotic nuclei: significantly higher
